Assay results taken from patent publication US8293274B2, “Intestinal absorptive anti-tumor agent” (Kabushiki Kaisha Sangi, priority 2005, dated 2012).
Counter-ions that a name gives are not always drawn. Values belong to the compound of their own block, whether it stands above or below them.

Assay: Intestinal absorption test of various antitumor agents (plasma concentration by gas/liquid chromatography)
Method: Rats were fasted for 16 hours and then forced oral administration to the stomach was performed using an oral gastric tube for rats.
Blood was collected from the tail vein prior to administration and 15 and 30 minutes, 1, 2, 3, 4, 6, 8 and 24 hours after administration. The collected blood was centrifuged at 4° C. for 15 minutes at 3,000 rpm to obtain plasma, and then the plasma concentrations of the various antitumor agents were measured.
These concentrations were measured using gas chromatography and liquid chromatography.

[1] = male, Sprague-Dawley, rat, in vivo, po, 50 mg/kg
[2] = male, Sprague-Dawley, rat, in vivo, po, 0.2 mg/kg
[3] = bleomycin hydrochloride in plasma, rats fasted 16 hours, oral, 2.0 mg/kg

Compound: O=P1(NCCCl)OCCCN1CCCl (stereo not drawn) [Comparative Test Example 4-2, ifosfamide]
AUC(0-t) [1]: 1240 ng·h/mL
Cmax [1]: 250 ng/mL
Tmax [1]: 45 min

AUC(0-t) [2]: 1110 ng·h/mL
Cmax [2]: 90 ng/mL
Tmax [2]: 49.8 min
Compound: CC[C@]1(O)C[C@H]2CN(CCc3c([nH]c4ccccc34)[C@@](C(=O)OC)(c3cc4c(cc3OC)N(C=O)[C@H]3[C@@](O)(C(=O)OC)[C@H](OC(C)=O)[C@]5(CC)C=CCN6CC[C@]43[C@@H]65)C2)C1 [Comparative Test Example 4-4, vincristine sulfate]

Compound: bleomycin hydrochloride [Comparative Test Example 4-3]
AUC0-24 h [3]: 520 ng·h/mL
Cmax [3]: 120 ng/mL
Tmax [3]: 85.2 min
